In US4111923A, “Octapeptides and methods for their production” (Parke, Davis & Company, priority 1976, dated 1978):
Non-standard residues stand in square brackets, D forms with d. Residues, ends and D or L forms follow the SMILES beside them. *: point of attachment. Cbz = O=C(OCc1ccccc1)*; Bn = c1ccc(C*)cc1

Test system: LRF-induced luteinizing hormone (LH) release in rat anterior pituitary cell cultures
Experiment: In vitro test in rat anterior pituitary cell cultures: inhibition of LRF-induced LH release into the culture medium
Format: cell-based
Procedure: octapeptides of this invention are screened for LRF antagonist activity in vitro using rat anterior pituitary cell cultures as described by Vale et al. [Endocrinology, 91, 562 (1972)]. The inhibition of LRF-induced luteinizing hormone (LH) release into the culture medium is the endpoint in this in vitro bioassay. Active peptides are then tested in vivo by the procedures of Humphrey et al. [Endocrinology, 92, 1515 (1972)]. Antagonist activity is assessed by the inhibition of LRF-induced LH release in the female rat and LRF-induced ovulation in the rabbit.
Following are the results of the above in vitro tests on certain preferred compounds.

[1] = compound 1×10^-8 molar, LRF 3.5×10^-10, LRF control 42.38, saline control 8.72
[2] = compound 1×10^-9 molar, LRF 3.5×10^-10, LRF control 42.38, saline control 8.72
[3] = compound 1×10^-10 molar, LRF 3.5×10^-10, LRF control 42.38, saline control 8.72
[4] = compound 2×10^-8 molar, LRF 3.5×10^-10, LRF control 42.38, saline control 8.72
[5] = compound 2×10^-9 molar, LRF 3.5×10^-10, LRF control 42.38, saline control 8.72
[6] = compound 2.5×10^-10 molar, LRF 3.5×10^-10, LRF control 42.38, saline control 8.72
[7] = compound 3.5×10^-9 molar, LRF 3.5×10^-10, LRF control 42.38, saline control 8.72
[8] = compound 6×10^-9 molar, LRF 3.5×10^-10, LRF control 42.38, saline control 8.72
[9] = compound 6×10^-10 molar, LRF 3.5×10^-10, LRF control 42.38, saline control 8.72
[10] = first series, compound 1×10^-8 molar, LRF 5×10^-10, LRF control 52.80, saline control 13.28
[11] = first series, compound 1×10^-9 molar, LRF 5×10^-10, LRF control 52.80, saline control 13.28
[12] = first series, compound 2.5×10^-9 molar, LRF 5×10^-10, LRF control 52.80, saline control 13.28
[13] = first series, compound 2.5×10^-10 molar, LRF 5×10^-10, LRF control 52.80, saline control 13.28
[14] = first series, compound 5×10^-9 molar, LRF 5×10^-10, LRF control 52.80, saline control 13.28
[15] = first series, compound 5×10^-10 molar, LRF 5×10^-10, LRF control 52.80, saline control 13.28
[16] = second series, compound 1×10^-9 molar, LRF 5×10^-10, LRF control 69.43, saline control 18.17
[17] = second series, compound 1×10^-10 molar, LRF 5×10^-10, LRF control 69.43, saline control 18.17
[18] = second series, compound 2.5×10^-9 molar, LRF 5×10^-10, LRF control 69.43, saline control 18.17
[19] = second series, compound 2.5×10^-10 molar, LRF 5×10^-10, LRF control 69.43, saline control 18.17
[20] = second series, compound 5×10^-10 molar, LRF 5×10^-10, LRF control 69.43, saline control 18.17
[21] = first series, compound 1×10^-10 molar, LRF 5×10^-10, LRF control 52.80, saline control 13.28
[22] = compound 1×10^-8 molar, LRF 5×10^-10, LRF control 46.58, saline control 9.10
[23] = compound 1×10^-9 molar, LRF 5×10^-10, LRF control 46.58, saline control 9.10
[24] = compound 5×10^-8 molar, LRF 5×10^-10, LRF control 46.58, saline control 9.10
[25] = compound 5×10^-9 molar, LRF 5×10^-10, LRF control 46.58, saline control 9.10

N^α -Benzyloxycarbonyl-N^γ -benzyl-L-glutaminyl-L-tryptophyl-L-seryl-L-tyrosyl-D-phenylalanyl-L-leucyl-L-arginyl-L-proline N-ethylamide
% LH Release Inhibition [1]: 92% | LH Value [1]: 11.28 ng/mL | % LH Release Inhibition [2]: 56% | LH Value [2]: 23.66 ng/mL | % LH Release Inhibition [3]: 35% | LH Value [3]: 30.60 ng/mL | % LH Release Inhibition [4]: 94% | LH Value [4]: 10.77 ng/mL | % LH Release Inhibition [5]: 60% | LH Value [5]: 22.09 ng/mL | % LH Release Inhibition [6]: 20% | LH Value [6]: 35.62 ng/mL | % LH Release Inhibition [7]: 61% | LH Value [7]: 21.76 ng/mL | % LH Release Inhibition [8]: 81% | LH Value [8]: 15.07 ng/mL | % LH Release Inhibition [9]: 51% | LH Value [9]: 25.13 ng/mL

CCNC(=O)[C@@H]1CCCN1C(=O)[C@H](CCCNC(=N)N)NC(=O)[C@H](CC(C)C)NC(=O)[C@@H](Cc1ccccc1)NC(=O)[C@H](Cc1ccc(O)cc1)NC(=O)[C@H](CO)NC(=O)[C@H](Cc1c[nH]c2ccccc12)NC(=O)[C@H](COCc1ccccc1)NC(=O)OCc1ccccc1.Cl [N^α -Benzyloxycarbonyl-O-benzyl-L-seryl-L-tryptophyl-L-seryl-L-tyrosyl-D-phenylalanyl-L-leucyl-L-arginyl-L-proline N-ethylamide hydrochloride] (Cbz-S(Bn)WSY[dF]LRP-NHEt)
% LH Release Inhibition [1]: 99% | LH Value [1]: 9.16 ng/mL | % LH Release Inhibition [2]: 68% | LH Value [2]: 19.35 ng/mL | % LH Release Inhibition [3]: 18% | LH Value [3]: 36.48 ng/mL | % LH Release Inhibition [5]: 83% | LH Value [5]: 14.48 ng/mL | % LH Release Inhibition [6]: 37% | LH Value [6]: 29.88 ng/mL | % LH Release Inhibition [7]: 93% | LH Value [7]: 11.16 ng/mL | % LH Release Inhibition [8]: 93% | LH Value [8]: 10.95 ng/mL | % LH Release Inhibition [9]: 50% | LH Value [9]: 25.41 ng/mL

LRF: luteinizing hormone releasing factor, also referred to as luteinizing hormone releasing hormone, or LH-RH; stimulates secretion of luteinizing hormone (QHWSYGLRPG; Gonadoliberin-1; UniProt P01148 24-33, looked up) [reference compound]
LH Value (LRF alone 3.5×10^-10 molar, saline control 8.72): 42.38 ng/mL | LH Value (LRF alone 5×10^-10 molar, saline control 9.10): 46.58 ng/mL | LH Value (first series, LRF alone 5×10^-10 molar, saline control 13.28): 52.80 ng/mL | LH Value (second series, LRF alone 5×10^-10 molar, saline control 18.17): 69.43 ng/mL

N^α -Benzyloxycarbonyl-O-benzyl-L-seryl-L-tryptophyl-L-seryl-L-tyrosyl-DL-pentamethylphenylalanyl-L-leucyl-L-arginyl-L-proline N-ethylamide
% LH Release Inhibition [10]: 102% | LH Value [10]: 12.61 ng/mL | % LH Release Inhibition [11]: 89% | LH Value [11]: 17.58 ng/mL | % LH Release Inhibition [12]: 102% | LH Value [12]: 12.47 ng/mL | % LH Release Inhibition [13]: 61% | LH Value [13]: 28.53 ng/mL | % LH Release Inhibition [14]: 96% | LH Value [14]: 14.80 ng/mL | % LH Release Inhibition [15]: 62% | LH Value [15]: 28.31 ng/mL | % LH Release Inhibition [16]: 100% | LH Value [16]: 18.35 ng/mL | % LH Release Inhibition [17]: 42% | LH Value [17]: 48.03 ng/mL | % LH Release Inhibition [18]: 108% | LH Value [18]: 13.91 ng/mL | % LH Release Inhibition [19]: 65% | LH Value [19]: 36.04 ng/mL | % LH Release Inhibition [20]: 87% | LH Value [20]: 24.94 ng/mL

N^α -BENZYLOXYCARBONYL-O-BENZYL-L-SERYL-L-TRYPTOPHYL-L-SERYL-L-TYROSYL-D-PENTAMETHYLPHENYLALANYL-L-LEUCYL-L-ARGINYL-L-PROLINE N-ETHYLAMIDE
% LH Release Inhibition [10]: 104% | LH Value [10]: 11.58 ng/mL | % LH Release Inhibition [11]: 91% | LH Value [11]: 16.69 ng/mL | % LH Release Inhibition [21]: 36% | LH Value [21]: 38.59 ng/mL | % LH Release Inhibition [12]: 105% | LH Value [12]: 11.35 ng/mL | % LH Release Inhibition [13]: 47% | LH Value [13]: 34.06 ng/mL | % LH Release Inhibition [14]: 100% | LH Value [14]: 13.16 ng/mL | % LH Release Inhibition [15]: 70% | LH Value [15]: 25.16 ng/mL | % LH Release Inhibition [16]: 104% | LH Value [16]: 16.00 ng/mL | % LH Release Inhibition [17]: 46% | LH Value [17]: 46.11 ng/mL | % LH Release Inhibition [18]: 98% | LH Value [18]: 19.09 ng/mL | % LH Release Inhibition [19]: 77% | LH Value [19]: 30.08 ng/mL | % LH Release Inhibition [20]: 90% | LH Value [20]: 23.26 ng/mL

CCNC(=O)[C@@H]1CCCN1C(=O)[C@H](CCCNC(=N)N)NC(=O)[C@H](CC(C)C)NC(=O)[C@@H](Cc1ccccc1)NC(=O)[C@H](Cc1ccc(O)cc1)NC(=O)[C@H](CO)NC(=O)[C@H](Cc1c[nH]c2ccccc12)NC(=O)[C@H](CCC(N)=O)NC(=O)OCc1ccccc1 [N^α -Benzyloxycarbonyl-L-glutaminyl-L-tryptophyl-L-seryl-L-tyrosyl-D-phenylalanyl-L-leucyl-L-arginyl-L-proline N-ethylamide] (Cbz-QWSY[dF]LRP-NHEt)
% LH Release Inhibition [22]: 71% | LH Value [22]: 19.91 ng/mL | % LH Release Inhibition [23]: 23% | LH Value [23]: 38.13 ng/mL | % LH Release Inhibition [24]: 95% | LH Value [24]: 11.16 ng/mL | % LH Release Inhibition [25]: 42% | LH Value [25]: 30.85 ng/mL
